Measurements reported in patent US20220288001A1, “CREATINE FOR IMMUNOTHERAPY” (The Regents of the University of California, priority 2019, published 2022).

Experiments:
[1] = Creatine quantification in serum after creatine supplementation; assay type: in vivo, mouse; settings: C57BL/6J WT mice, B16-OVA model; i.p. injection or dietary supplementation (0.4 g/kg body weight), both routes
Excerpt: A Creatine Assay Kit (Cat #ab65339, Abcam) was utilized to quantify creatine, both in vivo and in vitro, following the manufacturer's instructions. For the in vivo study, whole blood was collected (retro-orbital bleeding) from the experimental mice in a capillary tube, and the isolated serum was immediately used for the assay following the manufacturer's directions. For the in vitro study, cells were spun to remove culture media and suspended in cold PBS. Creatine was then quantified following the manufacturer's directions. The total amount of creatine detected was then normalized to cell numbers.
For creatine supplementation via i.p. injection, ceatine monohydrate (cat #C3630, Sigma-Aldrich) was dissolved in sterile PBS and i.p. injected to experimental animals daily at a dose of 10.5 mg per animal per injection.
For creatine supplementation via diet, experimental animals were fed a creatine-enriched isocaloric diet which is a customized formulation based on PicoLab Rodent Diet 20 enriched in creatine (3 g/Kg diet, cat #TD.170082, Envigo Teklad Diet). The diet was designed to reflect the safe daily dose of creatine recommended for enhanced athletic performance in humans (Mayo Clinic data). Non-treated mice (Ctrl) were fed a control diet prepared in a manner similar to that of the creatine-enriched diet.

Zap-70 = assay: Western blot of TCR proximal signaling in CD8 T cells with creatine supplementation; assay type: cell-based, mouse; settings: CrT-WT CD8 T cells; creatine 0.5 mM; anti-CD3 stimulation
Method: CD8 T cells were cultured in vitro in standard T cell culture medium comprising RPMI 1640 (Cat #10040, Corning), 10% FBS (Cat #F2442, Sigma), 1% Penicillin-Streptomycin-Glutamine (Cat #10378016, Gibco), 1% MEM Non-Essential Amino Acids Solution (Cat #11140050, Gibco), 1% HEPES (Cat #15630080, Gibco), 1% Sodium Pyruvate (100 mM) (Cat #11360070, Gibco), and 0.05 mM β -Mercaptoethanol (Cat #M3148, Sigma). Unless otherwise indicated, cells were seeded at 0.5×10^6 cells per well in 24-well plates and stimulated with plate-bound anti-CD3 (5 μg/ml) (clone 145-2C11), for up to 5 days. At indicated time point(s), cells were collected and analyzed for CrT mRNA expression using qPCR, for cell proliferation through cell counting, for viability through Annexin V/7-AAD staining followed by flow cytometry analysis, for surface activation marker (CD25) expression through surface staining followed by flow cytometry analysis, for effector molecule (Granzyme B, IL-2, and IFN-γ) production through intracellular staining followed by flow cytometry analysis, and for cytokine (IL-2 and IFN-γ) secretion through collecting cell culture supernatants followed by ELISA analysis. CrT protein expression and TCR signaling events were analyzed using western blot analysis. […]

Question: For `CN(CC(=O)O)C(=N)N` [creatine], which “creatine concentrations in blood (serum)” value [1] is on record?
Answer: elevated creatine concentrations in blood to a similar level

Question: What about the Zap-70 phosphorylation (Zap-70) of the same molecule?
Answer: significantly increased
